In ChEMBL document CHEMBL1201862, “PubChem BioAssay data set” (2004):
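Results reflect a 48-hour exposure of cells in 96-well plates to compound at five concentrations. At the GI50, growth is halved.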 Activity calls are given as the source filed them. Rule as the data show it: active = GI50 up to about 1.1 µM and inactive = higher.

Legend:
Experiment in all cases: growth of human tumour cells (NCI), 48 h
OVCAR-8 = system: OVCAR-8
HOP-62 = system: HOP-62
OVCAR-3 = system: OVCAR-3
HOP-92 = system: HOP-92
OVCAR-4 = system: OVCAR-4
HCC 2998 = system: HCC 2998
U-251 = system: U-251
NCI-H460 = system: NCI-H460
SN12C = system: SN12C
TK-10 = system: TK-10
NCI-H522 = system: NCI-H522
UACC-62 = system: UACC-62
SF-295 = system: SF-295
MDA-N = system: MDA-N
SR = system: SR
NCI/ADR-RES = system: NCI/ADR-RES
CAKI-1 = system: CAKI-1
SW-620 = system: SW-620
OVCAR-5 = system: OVCAR-5
DU-145 = system: DU-145

Row | SMILES | GI50 (OVCAR-8) | GI50 (HOP-62) | GI50 (OVCAR-3) | GI50 (HOP-92) | GI50 (OVCAR-4) | GI50 (HCC 2998) | GI50 (U-251) | GI50 (NCI-H460) | GI50 (SN12C) | GI50 (TK-10) | GI50 (NCI-H522) | GI50 (UACC-62) | GI50 (SF-295) | GI50 (MDA-N) | GI50 (SR) | GI50 (NCI/ADR-RES) | GI50 (CAKI-1) | GI50 (SW-620) | GI50 (OVCAR-5) | GI50 (DU-145)
1 | C=C1C(=O)O[C@H]2C1C[C@@H](O)/C(C)=C/CC[C@@]1(C)O[C@H]21 (stereo not given in full) | 15.2 µM (inactive) | > 59.6 µM (inactive) | 3.27 µM (inactive) | 8.89 µM (inactive) | 11.4 µM (inactive) | 33.1 µM (inactive) | 24.4 µM (inactive) | 22.4 µM (inactive) | 29.2 µM (inactive) | 12 µM (inactive) | 2.97 µM (inactive) | 24.7 µM (inactive) | > 55.1 µM (inactive) | 10.3 µM (inactive) | 7.64 µM (inactive) | 30.5 µM (inactive) | 3.03 µM (inactive) | 4.81 µM (inactive) | > 39.4 µM (inactive) | 20.7 µM (inactive)
2 | CO[C@H]1[C@H](O)[C@H](O[C@H]2CC[C@@]3(C)[C@H](CC[C@@H]4[C@@H]3CC[C@]3(C)[C@@H](C5=CC(=O)OC5)CC[C@]43O)C2)O[C@@H](C)[C@@H]1O [NERIIFOLIN] | 0.00108 µM (active) | 0.00027 µM (active) | 0.000515 µM (active) | 0.00123 µM (active) | 0.00028 µM (active) | 0.0094 µM (active) | 0.00132 µM (active) | 0.0006 µM (active) | 0.000211 µM (active) | 0.000859 µM (active) | 0.000151 µM (active) | 0.00155 µM (active) | 0.00056 µM (active) | < 0.0001 µM (active) | < 0.01 µM (active) | 0.000546 µM (active) | 0.000572 µM (active) | 0.000925 µM (active) | 0.00154 µM (active) | < 0.0001 µM (active)
3 | Cc1ccnc2sc3ccccc3c(=O)c12 | 43.1 µM (inactive) | 98.4 µM (inactive) | 91.6 µM (inactive) | 54 µM (inactive) | > 100 µM (inactive) | 42.3 µM (inactive) | 56.8 µM (inactive) | 24 µM (inactive) | 40.4 µM (inactive) | 23.8 µM (inactive) | 34.7 µM (inactive) | 17.6 µM (inactive) | 50.1 µM (inactive) | 39.4 µM (inactive) | 54.8 µM (inactive) | 48.5 µM (inactive) | 23.6 µM (inactive) | 44.3 µM (inactive) | 48.5 µM (inactive) | 84.3 µM (inactive)
4 | O=C(N/N=C\c1ccc([N+](=O)[O-])cc1)Nc1ccc2ccccc2c1 | 29.8 µM (inactive) | 22.2 µM (inactive) | > 100 µM (inactive) | 28.2 µM (inactive) | 21.5 µM (inactive) | 25.4 µM (inactive) | 21.4 µM (inactive) | 18.5 µM (inactive) | 45.5 µM (inactive) | 37.5 µM (inactive) | 24.6 µM (inactive) | 28.1 µM (inactive) | 49.4 µM (inactive) | 40.7 µM (inactive) | 20.6 µM (inactive) | 50.6 µM (inactive) | 37.5 µM (inactive) | 23.1 µM (inactive) | 34.8 µM (inactive) | 71.3 µM (inactive)
5 | Cc1cc(CC(O)(C(F)(F)F)C(F)(F)F)cc(CC(O)(C(F)(F)F)C(F)(F)F)n1 | 3.48 µM (inactive) | 3.33 µM (inactive) | 1.01 µM (active) | 2.55 µM (inactive) | 3.47 µM (inactive) | 4.23 µM (inactive) | 3.3 µM (inactive) | 2.04 µM (inactive) | 3.1 µM (inactive) | 4.7 µM (inactive) | 2.36 µM (inactive) | 3.57 µM (inactive) | 3.06 µM (inactive) | 3.88 µM (inactive) | 4.08 µM (inactive) | 1.87 µM (inactive) | > 100 µM (inactive) | > 100 µM (inactive) | 6.79 µM (inactive) | 2.74 µM (inactive)
6 | CCOC(=O)c1ccc(-c2cccs2)n1C | > 100 µM (inactive) | > 55.5 µM (inactive) | > 100 µM (inactive) | > 43.1 µM (inactive) | 79.8 µM (inactive) | > 100 µM (inactive) | > 100 µM (inactive) | > 100 µM (inactive) | > 100 µM (inactive) | > 100 µM (inactive) | 51.6 µM (inactive) | 58.5 µM (inactive) | > 95.3 µM (inactive) | > 96.2 µM (inactive) | > 64.9 µM (inactive) | > 87.5 µM (inactive) | > 100 µM (inactive) | > 80.7 µM (inactive) | > 100 µM (inactive) | > 100 µM (inactive)
7 | CC(C)C(Cl)CC/C(CBr)=C(\Cl)CCl (stereo not given) | 2 µM (inactive) | 17.1 µM (inactive) | 4.72 µM (inactive) | 2.25 µM (inactive) | 2.27 µM (inactive) | 13.7 µM (inactive) | 10.6 µM (inactive) | 13.4 µM (inactive) | 4.73 µM (inactive) | 14.5 µM (inactive) | 0.794 µM (active) | 2.24 µM (inactive) | 16.3 µM (inactive) | 2.05 µM (inactive) | 1.69 µM (inactive) | 10.9 µM (inactive) | 7.08 µM (inactive) | 1.8 µM (inactive) | 15.4 µM (inactive) | 13.4 µM (inactive)
8 | CN(C)Cc1cc(C(C)(C)C)cc(CN(C)C)c1O | 98.4 µM (inactive) | 68.5 µM (inactive) | 28.8 µM (inactive) | > 100 µM (inactive) | > 100 µM (inactive) | 17.1 µM (inactive) | 98.6 µM (inactive) | 36.4 µM (inactive) | 73.3 µM (inactive) | 67.3 µM (inactive) | 43.5 µM (inactive) | > 100 µM (inactive) | 44.6 µM (inactive) | > 100 µM (inactive) | 54.8 µM (inactive) | 34.2 µM (inactive) | > 100 µM (inactive) | 66.1 µM (inactive) | 57.3 µM (inactive) | 83.8 µM (inactive)
9 | CC(=O)N(C)C(C(=O)N1CC(C)CC1C(=O)N(C)C1C(=O)NC(CC(C)C)C(=O)N2CC(C)CC2C(=O)NC(CC(C)C)C(=O)N(C)C(C(C)C)C(=O)N2CCCC2C(=O)N(C)C(CC(C)C)C(=O)NCC(=O)OC1C)C(C)C (stereo not given) | > 100 µM (inactive) | > 100 µM (inactive) | > 100 µM (inactive) | > 100 µM (inactive) | > 100 µM (inactive) | > 100 µM (inactive) | > 100 µM (inactive) | > 100 µM (inactive) | > 100 µM (inactive) | > 100 µM (inactive) | > 100 µM (inactive) | > 100 µM (inactive) | > 100 µM (inactive) | > 100 µM (inactive) | > 100 µM (inactive) | > 100 µM (inactive) | > 100 µM (inactive) | > 100 µM (inactive) | > 100 µM (inactive) | > 100 µM (inactive)
10 | COc1ccc(/C(Br)=C2\OC(=O)c3ccccc32)cc1 | > 10 µM (inactive) | > 10 µM (inactive) | > 10 µM (inactive) | > 10 µM (inactive) | > 10 µM (inactive) | > 10 µM (inactive) | > 10 µM (inactive) | > 10 µM (inactive) | > 10 µM (inactive) | > 10 µM (inactive) | > 10 µM (inactive) | > 10 µM (inactive) | > 10 µM (inactive) | > 10 µM (inactive) | > 10 µM (inactive) | > 10 µM (inactive) | > 10 µM (inactive) | > 10 µM (inactive) | > 10 µM (inactive) | > 10 µM (inactive)
11 | O/N=C1\C=Cc2nn(-c3ccccc3)nc2\C1=N/O | 3.01 µM (inactive) | 4.3 µM (inactive) | 4.67 µM (inactive) | 8.26 µM (inactive) | 5.36 µM (inactive) | 14.5 µM (inactive) | 7.16 µM (inactive) | 3.07 µM (inactive) | 7.24 µM (inactive) | 17.8 µM (inactive) | 2.94 µM (inactive) | 1.3 µM (inactive) | 4.89 µM (inactive) | 7.96 µM (inactive) | 3.64 µM (inactive) | 7.24 µM (inactive) | 4.27 µM (inactive) | 5.41 µM (inactive) | 7.41 µM (inactive) | 1.07 µM (active)
12 | CC(=O)C(=[N+]=[N-])C(=O)NCC#N | > 10 µM (inactive) | > 10 µM (inactive) | > 10 µM (inactive) | > 10 µM (inactive) | > 10 µM (inactive) | > 10 µM (inactive) | > 10 µM (inactive) | > 10 µM (inactive) | > 10 µM (inactive) | > 10 µM (inactive) | > 10 µM (inactive) | > 10 µM (inactive) | > 10 µM (inactive) | > 10 µM (inactive) | > 10 µM (inactive) | > 10 µM (inactive) | > 10 µM (inactive) | > 10 µM (inactive) | > 10 µM (inactive) | > 10 µM (inactive)
13 | COc1cc(-c2cn(S(=O)(=O)c3ccc(C)cc3)c3ccccc23)nc(-c2cn(S(=O)(=O)c3ccc(C)cc3)c3ccccc23)n1 | 0.94 µM (active) | 1.84 µM (inactive) | 0.586 µM (active) | 4.98 µM (inactive) | 1.99 µM (inactive) | 0.516 µM (active) | 0.354 µM (active) | 0.388 µM (active) | 1.85 µM (inactive) | 8.22 µM (inactive) | 0.239 µM (active) | 0.632 µM (active) | 0.432 µM (active) | 0.441 µM (active) | 0.216 µM (active) | 0.746 µM (active) | 1.3 µM (inactive) | 2.9 µM (inactive) | 1.13 µM (inactive) | 0.625 µM (active)
14 | O=C1CC[C@@]2(O)[C@H]3Cc4ccc(-c5ccccc5)c5c4[C@@]2(CCN3CC2CC2)[C@H]1O5 | 16.1 µM (inactive) | 22.4 µM (inactive) | 18.1 µM (inactive) | 16.2 µM (inactive) | 35.9 µM (inactive) | 18.4 µM (inactive) | 17 µM (inactive) | 17.9 µM (inactive) | 24.2 µM (inactive) | 17.6 µM (inactive) | 14.7 µM (inactive) | 12.2 µM (inactive) | 19.2 µM (inactive) | 16.4 µM (inactive) | 25.9 µM (inactive) | 16.3 µM (inactive) | 18.3 µM (inactive) | 10.3 µM (inactive) | 17.2 µM (inactive) | 23.3 µM (inactive)
